# Reference: patent US11446282B2, “Methods of treating mixed dyslipidemia and hypertriglycertdemia” (Kowa Company, Ltd., priority 2017, dated 2022)
# Test system: dyslipidemic patients with renal impairment
# Test: Example 3 phase III 52-week trial: cholesterol in lipoprotein subclasses by HPLC
# Type: in vivo, human
# Details: 0.2 (0.4) mg/day
# Method: This was a multicenter, single-arm, open-label, phase III trial. The inclusion criteria were as follows: (1) patients with dyslipidemia aged >20 years at the time of informed consent; (2) men and postmenopausal women; (3) fasting serum TG≥1.70 mmol/L (150 mg/dL) at two consecutive measurements during screening; and (4) patients who followed dietary and physical exercise guidance for >12 weeks before enrollment.
# The major exclusion criteria were as follows: (1) patients with fasting serum TG≥5.65 mmol/L (500 mg/dL) during screening; (2) patients with poorly controlled diabetes mellitus (hemoglobin A1c [HbA1c]≥10.5%); (3) patients with concurrent poorly controlled thyroid disease; (4) men with serum creatinine ≥2.5 mg/dL and women with serum creatinine ≥2.0 mg/dL during screening who were already on statin therapy; (5) patients with eGFR<45 mL/min/1.73 m^2 during screening who were already on statin therapy; (6) patients with CK>5ULN (270 IU/L for men, 150 IU/L for women) during screening who were already on statin therapy; (7) patients with serious liver disease (cirrhosis Child-Pugh Class B or higher); (8) patients with gallstones or serious biliary tract disease; (9) patients who had suffered an acute myocardial infarction or stroke within three months before informed consent; and (10) patients with New York Heart Association class III or IV heart failure.
# During the screening period (8 weeks prior to treatment initiation), tests were performed twice to determine patient eligibility. Thereafter, eligible patients orally received pemafibrate 0.2 mg/day (twice daily) for 52 weeks. From week 12 of the treatment period onwards, the investigators were instructed that the dose could be increased from 0.2 mg/day to 0.4 mg/day (twice daily) if there was an inadequate response to the initial dose based on fasting serum TG levels ≥1.70 mmol/L (150 mg/dL). Fasting blood and urine samples were collected at each visit. Blood and urine sample in patients with hemodialysis were collected just before dialysis. LDL-C levels were measured using the direct method. […]
# The primary efficacy endpoint was the percent change in fasting serum TG from baseline to the last evaluation point. The primary safety endpoints were the incidence of an AE or ADR occurring after drug administration during the study. Secondary efficacy endpoints included percent changes in lipid variables and changes in inflammation variables at week 52 [using the last-observation-carried-forward (LOCF)]. Secondary safety endpoints included changes in the levels of aspartate aminotransferase (AST), ALT, -GT, ALP, serum creatinine, eGFR, and CK at week 52. Each baseline value was defined as (1) the mean of the corresponding values in the first and second tests at the screening examination and at week 0 of the treatment period for fasting serum TG, HDL-C, total cholesterol (TC), LDL-C, and non-HDL-C; and (2) the value at week 0 of the treatment period for the other secondary variables.
# The numbers of patients with AEs and ADRs and the incidences of AEs and ADRs were calculated in the analysis of primary safety endpoints. For the secondary efficacy endpoints, one-sample t-tests or Wilcoxon signed-rank tests [for high-sensitivity C-reactive protein (hsCRP) and IL-1] were performed. The secondary safety endpoints were analyzed with Wilcoxon signed-rank tests. A two-sided significance level of 0.05 was used. SAS v. 9.3 (SAS Institute Inc., Cary, N.C., USA) was used for these analyses. Where indicated, the data are expressed as means±standard deviation (SD).
smiles,measurement,setting,value
"CC[C@@H](Oc1cccc(CN(CCCOc2ccc(OC)cc2)c2nc3ccccc3o2)c1)C(=O)O [Pemafibrate, (2R)-2-[3-({1,3-benzoxazol-2-yl[3-(4-methoxyphenoxy)propyl]amino}methyl)phenoxy]butanoic acid]",CM-C % Change from baseline at Week 52 (LOCF),All Participants,−64.3%
same,CM-C Week 52 (LOCF),All Participants,0.039 mmol/L
same,Large HDL-C % Change from baseline at Week 52 (LOCF),All Participants,−9.2%
same,Large HDL-C Week 52 (LOCF),All Participants,0.115 mmol/L
same,Large LDL-C % Change from baseline at Week 52 (LOCF),All Participants,63.1%
same,Large LDL-C Week 52 (LOCF),All Participants,0.748 mmol/L
same,Medium HDL-C % Change from baseline at Week 52 (LOCF),All Participants,19.3%
same,Medium HDL-C Week 52 (LOCF),All Participants,0.443 mmol/L
same,Medium LDL-C % Change from baseline at Week 52 (LOCF),All Participants,17.3%
same,Medium LDL-C Week 52 (LOCF),All Participants,1.194 mmol/L
same,Small HDL-C % Change from baseline at Week 52 (LOCF),All Participants,24.2%
same,Small HDL-C Week 52 (LOCF),All Participants,0.473 mmol/L
same,Small LDL-C % Change from baseline at Week 52 (LOCF),All Participants,−20.6%
same,Small LDL-C Week 52 (LOCF),All Participants,0.517 mmol/L
same,VLDL-C % Change from baseline at Week 52 (LOCF),All Participants,−24.9%
same,VLDL-C Week 52 (LOCF),All Participants,0.866 mmol/L
same,Very large HDL-C % Change from baseline at Week 52 (LOCF),All Participants,4.4%
same,Very large HDL-C Week 52 (LOCF),All Participants,0.048 mmol/L
same,Very small HDL-C % Change from baseline at Week 52 (LOCF),All Participants,27.9%
same,Very small HDL-C Week 52 (LOCF),All Participants,0.181 mmol/L
same,Very small LDL-C % Change from baseline at Week 52 (LOCF),All Participants,−11.6%
same,Very small LDL-C Week 52 (LOCF),All Participants,0.210 mmol/L
same,CM-C % Change from baseline at Week 52 (LOCF),eGFR G1 (≥90),−54.1%
same,CM-C Week 52 (LOCF),eGFR G1 (≥90),0.064 mmol/L
same,Large HDL-C % Change from baseline at Week 52 (LOCF),eGFR G1 (≥90),−14.1%
same,Large HDL-C Week 52 (LOCF),eGFR G1 (≥90),0.107 mmol/L
same,Large LDL-C % Change from baseline at Week 52 (LOCF),eGFR G1 (≥90),54.5%
same,Large LDL-C Week 52 (LOCF),eGFR G1 (≥90),0.724 mmol/L
same,Medium HDL-C % Change from baseline at Week 52 (LOCF),eGFR G1 (≥90),11.4%
same,Medium HDL-C Week 52 (LOCF),eGFR G1 (≥90),0.441 mmol/L
same,Medium LDL-C % Change from baseline at Week 52 (LOCF),eGFR G1 (≥90),15.5%
same,Medium LDL-C Week 52 (LOCF),eGFR G1 (≥90),1.244 mmol/L
same,Small HDL-C % Change from baseline at Week 52 (LOCF),eGFR G1 (≥90),18.1%
same,Small HDL-C Week 52 (LOCF),eGFR G1 (≥90),0.482 mmol/L
same,Small LDL-C % Change from baseline at Week 52 (LOCF),eGFR G1 (≥90),−18.0%
same,Small LDL-C Week 52 (LOCF),eGFR G1 (≥90),0.576 mmol/L
same,VLDL-C % Change from baseline at Week 52 (LOCF),eGFR G1 (≥90),−24.6%
same,VLDL-C Week 52 (LOCF),eGFR G1 (≥90),0.932 mmol/L
same,Very large HDL-C % Change from baseline at Week 52 (LOCF),eGFR G1 (≥90),0.8%
same,Very large HDL-C Week 52 (LOCF),eGFR G1 (≥90),0.047 mmol/L
same,Very small HDL-C % Change from baseline at Week 52 (LOCF),eGFR G1 (≥90),20.6%
same,Very small HDL-C Week 52 (LOCF),eGFR G1 (≥90),0.186 mmol/L
same,Very small LDL-C % Change from baseline at Week 52 (LOCF),eGFR G1 (≥90),−10.3%
same,Very small LDL-C Week 52 (LOCF),eGFR G1 (≥90),0.233 mmol/L
same,CM-C % Change from baseline at Week 52 (LOCF),eGFR G2 (≥60 and <90),−63.9%
same,CM-C Week 52 (LOCF),eGFR G2 (≥60 and <90),0.038 mmol/L
same,Large HDL-C % Change from baseline at Week 52 (LOCF),eGFR G2 (≥60 and <90),−10.9%
same,Large HDL-C Week 52 (LOCF),eGFR G2 (≥60 and <90),0.115 mmol/L
same,Large LDL-C % Change from baseline at Week 52 (LOCF),eGFR G2 (≥60 and <90),67.7%
same,Large LDL-C Week 52 (LOCF),eGFR G2 (≥60 and <90),0.765 mmol/L
same,Medium HDL-C % Change from baseline at Week 52 (LOCF),eGFR G2 (≥60 and <90),17.7%
same,Medium HDL-C Week 52 (LOCF),eGFR G2 (≥60 and <90),0.448 mmol/L
same,Medium LDL-C % Change from baseline at Week 52 (LOCF),eGFR G2 (≥60 and <90),18.7%
same,Medium LDL-C Week 52 (LOCF),eGFR G2 (≥60 and <90),1.226 mmol/L
same,Small HDL-C % Change from baseline at Week 52 (LOCF),eGFR G2 (≥60 and <90),23.6%
same,Small HDL-C Week 52 (LOCF),eGFR G2 (≥60 and <90),0.477 mmol/L
same,Small LDL-C % Change from baseline at Week 52 (LOCF),eGFR G2 (≥60 and <90),−20.6%
